From patent US20160095823A1, “METHODS OF USING PROPOFOL DERIVATIVES FOR ANALGESIA” (priority 2005, published 2016)
Several values for one entry are separate records, joined by “and”; a condition that tells them apart may be missing. Identical values can stand only once.

Columns and labels:
[1] = biological target: T1, α-subunits of glycine receptors from the rat coexpressed with human β subunits (Rattus norvegicus, UniProt P07727); experiment: Example 2: direct activation in the absence of glycine, whole-cell mode, HEK293 cells; type: cell-based
T1 construct: expressed in transfected cells; host or cells: HEK293
T1 sequence (P07727 29-457): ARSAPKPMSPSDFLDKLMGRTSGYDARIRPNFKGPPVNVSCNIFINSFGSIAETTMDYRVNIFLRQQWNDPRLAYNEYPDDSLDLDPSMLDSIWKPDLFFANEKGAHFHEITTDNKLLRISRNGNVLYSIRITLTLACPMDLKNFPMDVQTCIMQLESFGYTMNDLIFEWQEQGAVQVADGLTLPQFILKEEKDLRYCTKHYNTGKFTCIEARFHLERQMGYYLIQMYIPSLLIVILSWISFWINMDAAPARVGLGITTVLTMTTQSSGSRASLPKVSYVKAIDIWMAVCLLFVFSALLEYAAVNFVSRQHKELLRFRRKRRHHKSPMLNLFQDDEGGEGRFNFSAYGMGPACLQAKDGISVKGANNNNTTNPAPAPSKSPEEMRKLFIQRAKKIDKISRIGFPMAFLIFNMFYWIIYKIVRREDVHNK
T1 sequence (P48167 23-497 partner): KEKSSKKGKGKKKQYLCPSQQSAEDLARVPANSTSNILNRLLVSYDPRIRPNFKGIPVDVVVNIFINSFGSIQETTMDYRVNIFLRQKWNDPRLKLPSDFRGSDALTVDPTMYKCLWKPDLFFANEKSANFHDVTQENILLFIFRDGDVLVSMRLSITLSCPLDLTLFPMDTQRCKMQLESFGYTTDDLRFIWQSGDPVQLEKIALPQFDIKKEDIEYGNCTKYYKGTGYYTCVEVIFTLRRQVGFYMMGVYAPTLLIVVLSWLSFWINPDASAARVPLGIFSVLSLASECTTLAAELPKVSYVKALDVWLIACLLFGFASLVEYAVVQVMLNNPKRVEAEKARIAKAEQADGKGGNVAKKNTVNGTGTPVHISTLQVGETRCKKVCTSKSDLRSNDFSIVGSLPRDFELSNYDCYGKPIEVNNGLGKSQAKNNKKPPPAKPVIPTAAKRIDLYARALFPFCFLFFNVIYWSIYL
Excerpt: (§1) Small cells were studied in the whole-cell mode using an ultra-fast application device.
The solid line is a Hill fit to the data with the indicated parameters. Note that the direct activating effect is observed at 1000-fold higher concentrations than the co-activating effect.

Xenopus laevis embryos [2] = experiment: Fictive swimming in immobilized stage 37/8 Xenopus embryos (ventral root recording); type: in vivo
Excerpt: The rhythmic swimming behaviour of Xenopus laevis frog embryos (FIG. 22A) is recognised as a powerful model system for exploring spinal neural networks controlling locomotion. The intensity, frequency and duration of swimming episodes are regulated by two inhibitory pathways: a descending brainstem GABA pathway that turns off swimming and a spinal glycinergic pathway that controls the cycle periods attained during swimming.
In the present study Xenopus embryos were used to test the action of 4-chloropropofol (a compound according to the first aspect of the invention) upon fictive swimming in immobilized embryos.
Stage 37/8 embryos (FIG. 22Ai) were immobilized in α-bungarotoxin, secured on a Sylgard block mounted in a recording chamber and recirculated with frog ringer. The flank skin on the left and right sides of the trunk was removed to expose the inter-myotomal clefts wherein lie the ventral roots and then three glass suction electrodes were positioned at rostral and caudal levels on the left side and rostrally on the right side (FIG. 22Aiii) to record “fictive” swimming (FIG. 22B). Swimming activity was evoked by a brief 1 msec current pulse applied to the tail skin via a fourth glass suction electrode. Drugs were applied directly to the bath.

native glycine receptors = experiment: Rat in vitro spinal cord preparation (sIPSCs, tonic conductance); settings: 100 nM-1 μM, preliminary experiments
[3] = biological target: T1, α-subunits of glycine receptors from the rat coexpressed with human β subunits; experiment: Example 2: co-activation of the current response to 10 μM glycine, whole-cell mode, HEK293 cells; type: cell-based
Description: as §1
The results presented in FIG. 10 were corroborated by repeating the tests carried out to provide the data shown in FIG. 10 to provide the data shown in FIG. 11. […] Note from FIGS. 10 and 11 that the co-activating effect is observed in the concentration range between […]. The co-activating effect is overridden by inhibitory effects at higher concentrations (≧1000 μM). […] Small cells were studied in the whole-cell mode using an ultra-fast application device.

[4] = biological target: T2, recombinant glycine alpha1 receptors (Homo sapiens, UniProt P23415); experiment: Glycine (EC10)-evoked current in Xenopus oocytes; type: cell-based; settings: 100 nM, preliminary experiments
T2 construct: expressed in transfected cells; host or cells: Xenopus oocytes
T2 sequence (P23415 29-457): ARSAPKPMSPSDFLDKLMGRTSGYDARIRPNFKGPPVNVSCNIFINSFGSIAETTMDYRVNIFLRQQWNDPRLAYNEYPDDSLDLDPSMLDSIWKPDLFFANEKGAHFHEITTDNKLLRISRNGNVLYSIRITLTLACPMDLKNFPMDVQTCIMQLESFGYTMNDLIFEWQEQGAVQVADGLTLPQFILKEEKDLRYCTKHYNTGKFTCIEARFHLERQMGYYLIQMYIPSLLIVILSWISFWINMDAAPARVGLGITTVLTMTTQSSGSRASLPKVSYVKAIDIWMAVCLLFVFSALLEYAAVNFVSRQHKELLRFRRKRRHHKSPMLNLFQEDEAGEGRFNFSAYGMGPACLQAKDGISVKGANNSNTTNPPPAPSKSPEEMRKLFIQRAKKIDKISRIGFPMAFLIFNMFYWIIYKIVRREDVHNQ

glycine receptors = settings: reported; cited from earlier work
Xenopus laevis embryos [5] = settings: cited from earlier work
[6] = 10 μM in the presence of 1 μM strychnine
[7] = 10 μM in the presence of 1 μM strychnine, pooled n=3
[8] = 10 μM in the presence of 40 μM bicuculline methiodide
[9] = wash after 10 μM in 1 μM strychnine
[10] = wash after 10 μM in 40 μM bicuculline methiodide

**Q.** For `CC(C)c1cc(Cl)cc(C(C)C)c1O` [4-chloropropofol, 4-chloro-2,6 di-isopropylphenol], which “EC50 values in the absence of the natural transmitter glycine” value ([1]; Example 2) is on record?
**A.** The value was “single-digit micromolar range”.

**Q.** What about the “direct activating effect, fold higher concentrations than the co-activating effect” value ([1]; absence of glycine versus 10 μM glycine) of the same compound?
**A.** The value was 1000 fold.

**Q.** And the “change in episode duration” value (Xenopus laevis embryos [2]; 10 μM alone)?
**A.** The value was “no significant change”.

**Q.** And the “increase in left-right delay” value (Xenopus laevis embryos [2]; 10 μM alone)?
**A.** Its value is 19%.

**Q.** What about the “increase in rostro-caudal delay” value (Xenopus laevis embryos [2]; 10 μM alone) of the same compound?
**A.** Its value is 8%.

**Q.** And the “increase in cycle periods” value (Xenopus laevis embryos [2]; 10 μM alone, pooled from 5 experiments)?
**A.** Its value is “approximately 20%”.

**Q.** What about the “decrease in cycle periods at the end of the episode” value (Xenopus laevis embryos [2]; [6]) of the same compound?
**A.** Its value is 3.4 ms.

**Q.** What about the “decrease in episode duration” value (Xenopus laevis embryos [2]; [6]) of the same compound?
**A.** Its value is 17 s.

**Q.** And the “increase in cycle periods at the start of the episode” value (Xenopus laevis embryos [2]; [6])?
**A.** Its value is 0.5 ms.

**Q.** And the “decrease in cycle periods (not significant)” value (Xenopus laevis embryos [2]; [7])?
**A.** Its value is “less than 2%”.

**Q.** And the “effect on episode duration” value (Xenopus laevis embryos [2]; [7])?
**A.** Its value is “little or no effect”.

**Q.** And the “effect on left-right delay” value (Xenopus laevis embryos [2]; [7])?
**A.** Its value is “little or no effect”.

**Q.** What about the “increase in cycle periods at the end of the episode” value (Xenopus laevis embryos [2]; [8]) of the same compound?
**A.** Its value is 20.3 ms.

**Q.** What about the “increase in cycle periods at the start of the episode” value (Xenopus laevis embryos [2]; [8]) of the same compound?
**A.** The value was 8.2 ms.

**Q.** And the “increase in episode duration” value (Xenopus laevis embryos [2]; [8])?
**A.** The value was 2 s.

**Q.** And the average cycle period (Xenopus laevis embryos [2]; 20 minutes after addition of 10 μM 4-chloropropofol in bicuculline)?
**A.** Its average cycle period is 61.3 ms.

**Q.** What about the “reversal of effect on cycle period by saline wash” value (Xenopus laevis embryos [2]; after 10 μM alone) of the same compound?
**A.** The value was 25-30%.

**Q.** What about the “reversal of effect on left-right delay by saline wash” value (Xenopus laevis embryos [2]; after 10 μM alone) of the same compound?
**A.** Its value is 22%.

**Q.** What about the “reversal of effect on rostro-caudal delay by saline wash” value (Xenopus laevis embryos [2]; after 10 μM alone) of the same compound?
**A.** Its value is 12%.

**Q.** What about the average cycle period (Xenopus laevis embryos [2]; after bicuculline methiodide wash) of the same compound?
**A.** The average cycle period was 54.5 ms.

**Q.** What about the “effect at the GABAA receptor” value (Xenopus laevis embryos [2]; at 1004 (so in the source)) of the same compound?
**A.** Its value is “negligible effect”.

**Q.** And the “influence on glycine receptors” value (Xenopus laevis embryos [2]; at the same concentration)?
**A.** Its value is “powerful influence”.

**Q.** And the “change in rostro-caudal delay” value (Xenopus laevis embryos [2]; in the presence of 1 μM strychnine)?
**A.** Its value is “small increase”.

**Q.** And the “change in rostro-caudal delay” value (Xenopus laevis embryos [2]; in the presence of 40 μM bicuculline methiodide)?
**A.** Its value is “clear decrease”.

**Q.** And the “decrease in cycle periods at the end of the episode by strychnine wash” value (Xenopus laevis embryos [2]; [9])?
**A.** The value was 5.4 ms.

**Q.** What about the “decrease in cycle periods at the start of the episode by strychnine wash” value (Xenopus laevis embryos [2]; [9]) of the same compound?
**A.** The value was 3 ms.

**Q.** And the “increase in episode duration by strychnine wash” value (Xenopus laevis embryos [2]; [9])?
**A.** Its value is 2 s.

**Q.** What about the “further decrease in cycle periods by the strychnine wash” value (Xenopus laevis embryos [2]; wash after 10 μM in 1 μM strychnine, pooled n=3) of the same compound?
**A.** The value was 3% and 1%.

**Q.** What about the “further increase of cycle periods at the end of the episode after bicuculline wash” value (Xenopus laevis embryos [2]; [10]) of the same compound?
**A.** The value was 6.5 ms.

**Q.** And the “reduction of cycle period at the start of the episode by bicuculline wash” value (Xenopus laevis embryos [2]; [10])?
**A.** Its value is 2 ms.

**Q.** What about the “reduction of episode duration by bicuculline wash” value (Xenopus laevis embryos [2]; [10]) of the same compound?
**A.** Its value is 2 s.

**Q.** What about the “effect on sIPSCs (mediated by synaptic glycine receptors)” value (native glycine receptors) of the same compound?
**A.** The value was “prolongation”.

**Q.** What about the “effect on tonic conductance (mediated by extrasynaptic glycine receptors)” value (native glycine receptors) of the same compound?
**A.** Its value is “increase”.

**Q.** What about the “EC50 values in the presence of glycine (co-activation)” value ([3]; Example 2) of the same compound?
**A.** The value was “single-digit nanomolar range”.

**Q.** And the “concentrations above which peak current amplitude declines (probable open channel block)” value ([3]; co-applied with 10 μM glycine)?
**A.** Its value is “above 10 μM”.

**Q.** What about the “concentrations at which the co-activating effect is overridden by inhibitory effects” value ([3]; co-applied with 10 μM glycine) of the same compound?
**A.** Its value is at least 1000 µM.

**Q.** What about the “enhancement of glycine receptor function / EC50 for co-activation, fold lower concentrations than propofol” value ([3]; glycine receptors heterologously expressed in HEK293 cells) of the same compound?
**A.** Its value is 1000 fold.

**Q.** What about the “effect on glycine (EC10)-evoked current” value [4] of the same compound?
**A.** The value was “greatly enhanced”.

**Q.** Which “activation of glycine receptors, fold higher concentrations than EC50 at GABAA receptors” value (glycine receptors) does the source give for `CC(C)c1cccc(C(C)C)c1O` [propofol, 2,6-di-isopropylphenol] here?
**A.** Its value is 10 fold.

**Q.** And the “concentration affecting swimming via potentiation of the glycine receptor” value (Xenopus laevis embryos [5]; higher concentrations)?
**A.** Its value is 40 µM.

**Q.** What about the “concentration inhibiting swimming via actions at the GABAA receptor” value (Xenopus laevis embryos [5]; low concentration) of the same compound?
**A.** Its value is 10 µM.
